# Measured values: article PMC9788431, “Combination of Docking-Based and Pharmacophore-Based Virtual Screening Identifies Novel Agonists That Target the Urotensin Receptor” (Molecules, 2022)
# Entries after “also recorded” stand apart in the source; their conditions may differ.
# Legend:
# [1] = biological target: T1, UT receptor (Homo sapiens, UniProt Q9UKP6); test: intracellular calcium mobilization (Fluo-8 calcium assay); type: cell-based; conditions: for agonist behaviour in calcium assay: in words
# T1 construct: SNAP-tag; expressed in transfected cells; host or cells: 293A8 (HEK293A stably transfected with the UT receptor); inferred, the calcium-assay paragraph names no cells
# T1 sequence (Q9UKP6 1-389): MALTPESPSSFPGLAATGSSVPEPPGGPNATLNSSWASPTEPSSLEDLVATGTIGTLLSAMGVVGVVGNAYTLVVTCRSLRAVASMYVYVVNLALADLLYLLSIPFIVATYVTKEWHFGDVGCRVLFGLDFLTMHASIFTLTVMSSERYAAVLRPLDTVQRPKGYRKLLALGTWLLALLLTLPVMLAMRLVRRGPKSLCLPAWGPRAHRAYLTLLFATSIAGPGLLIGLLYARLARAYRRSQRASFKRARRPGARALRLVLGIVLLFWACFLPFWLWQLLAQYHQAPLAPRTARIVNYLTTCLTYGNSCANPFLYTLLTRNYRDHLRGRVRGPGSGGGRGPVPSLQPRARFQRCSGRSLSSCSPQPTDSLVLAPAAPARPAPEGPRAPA
# Description: (§1) HTLA cells (a HEK293 cell line stably expressing a tTA-dependent luciferase reporter and a β-arrestin2-TEV fusion gene) were a gift from the laboratory of R. Axel (he has given us permission to distribute them) and are maintained in DMEM supplemented with 10% FBS, 100 U/mL penicillin and 100 μg/mL streptomycin, 2 μg/mL puromycin and 100 μg/mL hygromycin B. HepG2 cells (C5 passage, human hepatoma cell line) were purchased from the National Platform of Experimental Cell Resources for Sci-Tech, Chinese Academy of Medical Sciences (Beijing, China), and 293A8 cells were the cell line HEK293A stably transfected with the UT receptor in our laboratory. HepG2 and 293A8 cells were grown in high glucose (25 mmol/L) Dulbecco’s modified Eagle’s medium (DMEM, Gibco, CA, USA) supplemented with 10% fetal bovine serum (FBS, Gibco, CA, USA), 100 U/mL penicillin and 100 µg/mL streptomycin solution (Solarbio, Beijing, China). Cells were cultured in a standard humidified incubator at 37 °C under a 5% CO2 atmosphere. The media were changed every 2 days. Subcultures were performed at a ratio of 1:3 when cells were approximately 75–85% confluent.
# Measurement of intracellular calcium mobilization was performed using Fluo-8 Calcium Assay Kit (Applygen, Beijing, China) following the manufacturer’s instructions.
# [2] = system: HepG2 cells; test: lactic acid release; type: cell-based, human
# Description: as §1
# (§2) Glucose consumption detection was performed as described previously. In brief, HepG2 cells in 96-well plates at a density of 8000 cells/well were treated with compounds at 37 °C, and 5% CO2. After the indicated duration, the media from cultured cells were taken for glucose and lactic acid detection. The glucose levels were detected by a blood-glucose kit from Biosino Biotechnology (Beijing, China). The amount of glucose consumption was calculated by subtracting the initial glucose level from the remaining glucose in the wells. The lactate content was measured using the lactic acid assay kit (Nanjing Jiancheng Bioengineering Institute, Nanjing, China) according to the manufacturer’s instructions.
# [3] = system: HepG2 cells; test: glucose consumption; type: cell-based, human
# Description: as §1, §2
# [4] = biological target: T1, UT receptor; test: luciferase β-arrestin recruitment-based assay; type: cell-based
# Description: as §1
# The β-arrestin recruitment-based experiments were performed according to previous reports with slight modifications. In brief, the UT receptor plasmid was transfected into HTLA cells with the transfection reagent PEI when the cell confluence reached approximately 80%. Transfected cells were seeded in 96-well plates at a density of 1.5 × 10^5 cells/well. After 24 h, the cells were treated with compounds diluted to the specified concentration using 10% FBS DMEM. Following the next 24 h incubation with compounds, the medium was removed and Bright-GloTM (Promega, Madison, WI, USA) reagent was added immediately. Then, the activity of firefly luciferase luminescence (RLUF) was measured using a SpectraMax M5 microplate reader (Molecular devices, LLC., San Jose, CA, USA).
# [5] = system: HepG2 cells; test: cell viability (CCK-8); type: cell-based, human; conditions: 24 h
# Description: as §1
# Cell viability was detected by Cell Counting Kit-8 (CCK-8) per the instructions of the technical manual (Dojindo, Kumamoto, Japan). In brief, the cells were seeded in a 96-well plate and incubated overnight in the cell culture incubator. After the cells were treated with compounds for a certain period, the CCK-8 test solution was added at 1/10 of the total volume. Then, the plates were incubated in the incubator for 2 h, and the absorbance at 450 nm was measured using a SpectraMax M5 microplate reader (Molecular Devices, LLC, San Jose, CA, USA).
# [6] = parameters: method as in PMID 19696412; conditions: cited from earlier work
# [7] = chronic administration, cited from earlier work
# [8] = intracellular calcium mobilization
# [9] = intracellular calcium mobilization, fluorescence-based, read-out: Calcium assay EC50
# [10] = HTLA cells transfected with UT receptor plasmid
# [11] = HTLA cells transfected with UT receptor plasmid, 24 h incubation, read-out: β-arrestin recruitment-based assay EC50
agonist behaviour in calcium assay [1],"Calcium assay Emax [1, 8]","EC50 [1, 9] [µM]","β-arrestin recruitment-based assay Emax [4, 10]","EC50 [4, 11] [µM]",SMILES,lactic acid release [2],glucose consumption ([3]; 48 h total glucose consumption),cell viability [5],EC50 [1] [µM],EC50 [4] [µM],"glucose consumption ([3]; at higher concentrations (10^−6 M, 10^−5 M))",glucose consumption in vitro [6],whole-body glucose tolerance ([7]; high-fat-diet-fed mice),glucose tolerance ([7]; obese mice)
full potent agonist,5.62,7.39,4.85,0.0897,C=CC(C)(C)c1c(O)cc(O)c2c(=O)c(O)c(-c3cc(O)c4c(c3)C=CC(C)(C)O4)oc12 [Compound 1],reduced lactic acid production,significantly accelerate 48 h total glucose consumption; also recorded: promote glucose utilization,did not affect; also recorded: without obvious cytotoxic effects,,,,,,
weak activity,2.37,10.6,3.26,0.0448,O=C(NCCc1cccs1)C1(c2ccccc2)CCCC1 [Compound 3],reduced lactic acid production,,significantly reduced cell viability,,,significantly increased glucose consumption,,,
,5.27,,8.32,,"CC(C)[C@H](NC(=O)[C@@H]1CSSC[C@H](NC(=O)[C@H](CC(=O)O)NC(=O)[C@@H]2CCCN2C(=O)[C@@H](NC(=O)[C@@H](N)CCC(=O)O)[C@@H](C)O)C(=O)N[C@@H](Cc2ccccc2)C(=O)N[C@@H](Cc2c[nH]c3ccccc23)C(=O)N[C@@H](CCCCN)C(=O)N[C@@H](Cc2ccc(O)cc2)C(=O)N1)C(=O)O [U-II, urotensin-II]",,,,,,,increases glucose consumption,improves whole-body glucose tolerance,improved glucose tolerance

SMILES,agonist behaviour in calcium assay [1],"Calcium assay Emax [1, 8]","EC50 [1, 9] [µM]","β-arrestin recruitment-based assay Emax [4, 10]","EC50 [4, 11] [µM]",lactic acid release [2],glucose consumption ([3]; 48 h total glucose consumption),cell viability [5],EC50 [1] [µM],EC50 [4] [µM],"glucose consumption ([3]; at higher concentrations (10^−6 M, 10^−5 M))",glucose consumption in vitro [6],whole-body glucose tolerance ([7]; high-fat-diet-fed mice),glucose tolerance ([7]; obese mice)
O=C(c1ccc([N+](=O)[O-])o1)N1CCN(c2ccc([N+](=O)[O-])cc2)CC1 [Compound 2],,4.08,,2.40,,no significant differences,no significant differences,no significant differences,10.2,0.037,,,,
